Paper PMC4306947, “Synthesis and Antiproliferative Activity of Thiazolyl-bis-pyrrolo[2,3-b]pyridines and Indolyl-thiazolyl-pyrrolo[2,3-c]pyridines, Nortopsentin Analogues” (Marine Drugs, 2015)
Read-outs that look alike come from different tables or passages of the source.

Legend:
SNB-75 = test: NCI-60 in vitro tumor cell screen, SNB-75; assay type: cell-based; conditions: Homo sapiens; SNB-75, CNS Cancer
Protocol: (§1) All the synthesized thiazoles 1a–l, 2a–j, 3a–f and 4a–f were evaluated by the National Cancer Institute (Bethesda MD) for cytotoxicity against the NCI-60 cell line panel using standard protocols. Initially, all derivatives were tested at a single dose (10^−5 M) on the full panel of approximately 60 human tumor cell lines derived from 9 human cancer cell types, that have been grouped in disease sub-panels including leukemia, non-small-cell lung, colon, central nervous system (CNS), melanoma, ovarian, renal, prostate and breast cancers (data not shown). Compounds 1k and 4c were further selected for full evaluation at five concentration levels (10^−4–10^−8 M).
(§2) The antitumor activity of compounds 1k and 4c was given by three parameters for each cell line: GI50 (GI50 is the molar concentration of the compound that inhibits 50% net cell growth), TGI (TGI is the molar concentration of the compound leading to total inhibition of net cell growth), and LC50 (LC50 is the molar concentration of the compound that induces 50% net cell death). The average values of mean graph midpoint (MG_MID) were calculated for each of these parameters.

SNB-19 = test: NCI-60 in vitro tumor cell screen, SNB-19; assay type: cell-based; conditions: Homo sapiens; SNB-19, CNS Cancer
Protocol: as §1, §2

HCT-116 cells [1] = test: Phosphatidylserine exposure, Annexin V-FITC/PI flow cytometry; assay type: cell-based, human; conditions: 24 h
Protocol: The apoptosis-induced PS externalization to the cell surface was measured by flow cytometry by double staining with Annexin V-Fluorescein isothiocyanate (Annexin V-FITC)/propidium iodide (PI). Annexin V binding to phosphatidylserine is used to identify the earliest stage of apoptosis. […] After 24 h treatment, HCT-116 cells were harvested by trypsinization and adjusted at 1.0 × 10^6 cells/mL with combining buffer according to the manufacturer instructions (eBioscience, San Diego, CA, USA). One hundred μL of cell suspensions were added to a new tube, and incubated with Annexin V-FITC and PI solution at room temperature in the dark for 15 min. Then samples of at least 1.0 × 10^4 cells were subjected to FACS analysis using appropriate 2-bidimensional gating method.

HS 578T = test: NCI-60 in vitro tumor cell screen, HS 578T; assay type: cell-based; conditions: Homo sapiens, Breast Cancer
Protocol: as §1, §2

OVCAR-8 = test: NCI-60 in vitro tumor cell screen, OVCAR-8; assay type: cell-based; conditions: Homo sapiens; OVCAR-8, Ovarian Cancer
Protocol: as §1, §2

NCI-H460 = test: NCI-60 in vitro tumor cell screen, NCI-H460; assay type: cell-based; conditions: Homo sapiens; NCI-H460, Non-Small Cell Lung Cancer
Protocol: as §1, §2

SK-OV-3 = test: NCI-60 in vitro tumor cell screen, SK-OV-3; assay type: cell-based; conditions: Homo sapiens; SK-OV-3, Ovarian Cancer
Protocol: as §1, §2

SK-MEL-2 = test: NCI-60 in vitro tumor cell screen, SK-MEL-2; assay type: cell-based; conditions: Homo sapiens; SK-MEL-2, Melanoma
Protocol: as §1, §2

SF-268 = test: NCI-60 in vitro tumor cell screen, SF-268; assay type: cell-based; conditions: Homo sapiens; SF-268, CNS Cancer
Protocol: as §1, §2

786-0 = test: NCI-60 in vitro tumor cell screen, 786-0; assay type: cell-based; conditions: Homo sapiens; 786-0, Renal Cancer
Protocol: as §1, §2

NCI-60 cell line panel = test: NCI-60 cell line panel, summary over the full panel or subpanel; assay type: cell-based, human; conditions: for GI50: Homo sapiens
Protocol: as §1, §2

RPMI-8226 = test: NCI-60 in vitro tumor cell screen, RPMI-8226; assay type: cell-based; conditions: Homo sapiens; RPMI-8226, Leukemia
Protocol: as §1, §2

EKVK = test: NCI-60 in vitro tumor cell screen, EKVK; assay type: cell-based; conditions: Homo sapiens, Non-Small Cell Lung Cancer
Protocol: as §1, §2

OVCAR-5 = test: NCI-60 in vitro tumor cell screen, OVCAR-5; assay type: cell-based; conditions: Homo sapiens; OVCAR-5, Ovarian Cancer
Protocol: as §1, §2

HOP-92 = test: NCI-60 in vitro tumor cell screen, HOP-92; assay type: cell-based; conditions: Homo sapiens; HOP-92, Non-Small Cell Lung Cancer
Protocol: as §1, §2

U251 = test: NCI-60 in vitro tumor cell screen, U251; assay type: cell-based; conditions: Homo sapiens, U-251; U251, CNS Cancer
Protocol: as §1, §2

SF-539 = test: NCI-60 in vitro tumor cell screen, SF-539; assay type: cell-based; conditions: Homo sapiens; SF-539, CNS Cancer
Protocol: as §1, §2

HCT-116 cells [2] = test: Mitochondrial transmembrane potential (DiOC6 flow cytofluorometry); assay type: cell-based, human; conditions: 24 h
Protocol: Changes of mitochondrial transmembrane potential (Δψm) were assessed by flow cytofluorometry, using the cationic lipophilic dye 3,3′-dihexyloxacarbocyanine iodide(3) (DiOC6) (Molecular Probes, Inc., Life Technologies Italia, Monza, Italy) which accumulates in the mitochondrial matrix. Changes in mitochondrial membrane potential are indicated by a reduction in the DiOC6-induced fluorescence intensity. After 24 h treatment, HCT116 cells were incubated with DiOC6 at a 40 nmol/L final concentration, for 15 min at 37 °C. After centrifugation, cells were washed with PBS and suspended in 500 μL PBS. Fluorescent intensities were analysed in at least 1 × 10^4 cells for each sample.

SF-295 = test: NCI-60 in vitro tumor cell screen, SF-295; assay type: cell-based; conditions: Homo sapiens; SF-295, CNS Cancer
Protocol: as §1, §2

PC-3 = test: NCI-60 in vitro tumor cell screen, PC-3; assay type: cell-based; conditions: Homo sapiens; PC-3, Prostate Cancer
Protocol: as §1, §2

MDA-MB-231/ATCC = test: NCI-60 in vitro tumor cell screen, MDA-MB-231/ATCC; assay type: cell-based; conditions: Homo sapiens, Breast Cancer
Protocol: as §1, §2

NCI-H226 = test: NCI-60 in vitro tumor cell screen, NCI-H226; assay type: cell-based; conditions: Homo sapiens; NCI-H226, Non-Small Cell Lung Cancer
Protocol: as §1, §2

HL-60(TB) = test: NCI-60 in vitro tumor cell screen, HL-60(TB); assay type: cell-based; conditions: Homo sapiens, Leukemia
Protocol: as §1, §2

[3] = mean over the NCI full panel, read-out: GI50 mean value
[4] = range over the NCI full panel, read-out: GI50 values against most of the human cell lines (range)
[5] = concentration GI30, control 3.9%
[6] = concentration GI70, control 3.9%

SMILES | GI50 (SNB-75) [µM] | GI50 (SNB-19) [µM] | apoptosis (Annexin V-FITC/PI staining) (HCT-116 cells [1]) | GI50 (HS 578T) [µM] | GI50 (OVCAR-8) [µM] | GI50 (NCI-H460) [µM] | GI50 (SK-OV-3) [µM] | GI50 (SK-MEL-2) [µM] | GI50 (SF-268) [µM] | GI50 (786-0) [µM] | GI50 (NCI-60 cell line panel; [3]) [µM] | GI50 (NCI-60 cell line panel; [4]) [µM] | percentage of sensitive cell lines out of the total number of cell lines investigated (NCI-60 cell line panel; NCI full panel) [%] | GI50 (RPMI-8226) [µM] | GI50 (EKVK) [µM] | GI50 (OVCAR-5) [µM] | GI50 (HOP-92) [µM] | GI50 (U251) [µM] | GI50 (SF-539) [µM] | mitochondrial transmembrane potential (Δψm) loss, AQ (HCT-116 cells [2]; [5]) [%] | further results
Cn1cc(-c2csc(-c3c[nH]c4ncccc34)n2)c2cc(Br)cnc21 [Compound 1k, 5-Bromo-1-methyl-3-[2-(1H-pyrrolo[2,3-b]pyridin-3-yl)-1,3-thiazol-4-yl]-1H-pyrrolo[2,3-b]pyridine] | 2.18 | 6.74 | percentage of cells in late apoptosis increased | 2.43 | 3.72 | 2.98 | 3.25 | 19.8 | 6.01 | 9.65 | 5.26 | 0.81 to 27.7 | 89 | > 100 | 1.27 | > 100 | 5.03 | 2.7 | 27.7 | 26.0 | mitochondrial transmembrane potential (Δψm) loss, AQ (HCT-116 cells [2]; [6]): 35.3%; GI50 (SF-295): 3.01 µM; GI50 (PC-3): 4.35 µM; GI50 (MDA-MB-231/ATCC): 3.02 µM; GI50 (NCI-H226): 1.97 µM; GI50 (HL-60(TB)): > 100 µM
Clc1nccc2c(-c3csc(-c4c[nH]c5ccc(Br)cc45)n3)c[nH]c12 [Compound 4c, 3-[2-(5-Bromo-1H-indol-3-yl)-1,3-thiazol-4-yl]-7-chloro-1H-pyrrolo[2,3-c]pyridine] | 2.37 | 3.25 | evident only at high concentrations (GI70) | 3.7 | 3.65 | 2.16 | 2.78 | 4.09 | 4.06 | 1.37 | 2.59 | 0.93 to 4.7 | 100 | 4.03 | 3.11 | 3.14 | 2.43 | 2.05 | 1.87 | 3.8 | GI50 (NCI-60 cell line panel; all renal cancer subpanel cell lines, read-out: GI50 range, renal cancer subpanel): 0.93 to 4.16 µM; percentage of cell lines with positive LC50 values (NCI-60 cell line panel; NCI full panel, data not shown): 81%; percentage of cell lines with positive TGI values (NCI-60 cell line panel; NCI full panel, data not shown): 98%; mitochondrial transmembrane potential (Δψm) loss, AQ (HCT-116 cells [2]; [6]): 14.7%; GI50 (SF-295): 2.48 µM; GI50 (PC-3): 3.86 µM; GI50 (MDA-MB-231/ATCC): 1.68 µM; GI50 (NCI-H226): 2.4 µM; GI50 (HL-60(TB)): 2.64 µM
